# Patent publication US4333933A, “Benzoguanamine derivatives, their production and pharmaceutical compositions containing the same” (Nippon Shinyaku Co., Ltd., priority 1980, dated 1982)
# System: carrageenin edema
# Experiment: Carrageenin edema inhibition activity (for rats)
# Assay type: in vivo
# Conditions: Rattus norvegicus, ip; for inhibition in vivo at 50 mg/kg: 50 mg/kg i.p.; for inhibition in vivo at 100 mg/kg: 100 mg/kg i.p.
# Excerpt: In Table 2 below, carrageenin edema inhibition activity (for rats) of representative compounds of the present invention is illustrated: […]
Compound,inhibition in vivo at 50 mg/kg [%],inhibition in vivo at 100 mg/kg [%]
Nc1nc(NC(=O)c2cccnc2)nc(-c2cc(Br)ccc2Br)n1 [Compound 21],35.6,40.6
Nc1nc(NC(=O)c2cccnc2)nc(-c2cccc(Cl)c2)n1 [Compound 2],43.6,54.2
Nc1nc(NC(=O)c2cccnc2)nc(-c2ccc(Cl)cc2)n1 [Compound 1],56.8,57.2
Nc1nc(NC(=O)c2cccnc2)nc(-c2cc(Cl)ccc2F)n1 [Compound 19],34.2,47.8
Nc1nc(NC(=O)c2cccnc2)nc(-c2ccc(Cl)cc2F)n1 [Compound 20],42.7,50.8
Nc1nc(NC(=O)c2cccnc2)nc(-c2ccc(F)cc2)n1 [Compound 10],53.8,56.1
Nc1nc(NC(=O)c2cccnc2)nc(-c2ccccc2I)n1 [Compound 9],38.1,40.5
Nc1nc(NC(=O)c2cccnc2)nc(-c2cc(F)ccc2F)n1 [Compound 27],51.2,53.6
Nc1nc(NC(=O)c2cccnc2)nc(-c2cc(Cl)ccc2Cl)n1 [Compound 15],43.2,54.5
Nc1nc(NC(=O)c2cccnc2)nc(-c2ccc(Cl)cc2Br)n1 [Compound 28],42.8,48.4
Nc1nc(NC(=O)c2cccnc2)nc(-c2cc(F)ccc2Cl)n1 [Compound 24],46.5,45.1
Nc1nc(NC(=O)c2cccnc2)nc(-c2ccc(Br)cc2)n1 [Compound 4],44.4,49.3
Nc1nc(NC(=O)c2cccnc2)nc(-c2cc(F)ccc2Br)n1 [Compound 25],40.7,45.9
Nc1nc(NC(=O)c2cccnc2)nc(-c2cccc(F)c2)n1 [Compound 11],49,47.1
Nc1nc(NC(=O)c2cccnc2)nc(-c2ccc(Cl)c(Cl)c2)n1 [Compound 13],40.9,49.2
Nc1nc(NC(=O)c2cccnc2)nc(-c2ccccc2Cl)n1 [Compound 3],37.1,45.5
Nc1nc(NC(=O)c2cccnc2)nc(-c2cc(Br)ccc2Cl)n1 [Compound 29],38.7,49.2
Nc1nc(NC(=O)c2cccnc2)nc(-c2cccc(Br)c2)n1 [Compound 5],41.9,40.2
